Laboratory results: ChEMBL document CHEMBL4665836, “Overcoming β-Lactam resistance in Pseudomonas aeruginosa using non-canonical tobramycin-based antibiotic adjuvants” (2020)

How the values were obtained:
Type in all cases: functional
[1] = system: Pseudomonas aeruginosa; assay: Potentiation of ceftazidime-induced antibacterial activity against wild type Pseudomonas aeruginosa PAO1 assessed as fold reduction in ceftazidime MIC at 8 uM
[2] = system: Pseudomonas aeruginosa; assay: Potentiation of imipenem-induced antibacterial activity against carbapenem and colistin-resistant Pseudomonas aeruginosa 101243 clinical isolate assessed as imipenem MIC at 8 uM by checkerboard assay (reference value: 8 ug/ml)
[3] = system: Pseudomonas aeruginosa; assay: Potentiation of aztreonam-induced antibacterial activity against carbapenem-resistant Pseudomonas aeruginosa 86052 clinical isolate assessed as aztreonam MIC at 8 uM by checkerboard assay (reference value: 64 ug/ml)
[4] = system: Pseudomonas aeruginosa; assay: Potentiation of aztreonam-induced antibacterial activity against carbapenem-resistant Pseudomonas aeruginosa 262-101856 clinical isolate assessed as aztreonam MIC at 8 uM by checkerboard assay (reference value: 32 ug/ml)
[5] = system: Pseudomonas aeruginosa; assay: Potentiation of imipenem-induced antibacterial activity against carbapenem-resistant Pseudomonas aeruginosa 101885 clinical isolate assessed as imipenem MIC at 8 uM by checkerboard assay (reference value: 4 ug/ml)
[6] = system: Pseudomonas aeruginosa; assay: Antibacterial activity against wild type Pseudomonas aeruginosa PAO1
[7] = system: Pseudomonas aeruginosa; assay: Potentiation of imipenem-induced antibacterial activity against carbapenem-resistant Pseudomonas aeruginosa 100036 clinical isolate assessed as imipenem MIC at 8 uM by checkerboard assay (reference value: 8 ug/ml)
[8] = system: Pseudomonas aeruginosa; assay: Potentiation of ceftazidime-induced antibacterial activity against carbapenem-resistant Pseudomonas aeruginosa 88949 clinical isolate assessed as ceftazidime MIC at 8 uM by checkerboard assay (reference value: 64 ug/ml)
[9] = system: Pseudomonas aeruginosa; assay: Potentiation of ceftazidime-induced antibacterial activity against carbapenem-resistant Pseudomonas aeruginosa PAO200 harboring mexAB-oprM efflux deficient mutant assessed as ceftazidime MIC at 8 uM by checkerboard assay (reference value: 1 ug/ml)
[10] = system: Pseudomonas aeruginosa; assay: Potentiation of ceftazidime-induced antibacterial activity against carbapenem-resistant Pseudomonas aeruginosa 260-97103 clinical isolate assessed as ceftazidime MIC at 8.7 uM by checkerboard assay (reference value: 32 ug/ml)
[11] = system: Pseudomonas aeruginosa; assay: Potentiation of ceftazidime-induced antibacterial activity against carbapenem-resistant Pseudomonas aeruginosa 101885 clinical isolate assessed as ceftazidime MIC at 8.7 uM by checkerboard assay (reference value: 8 ug/ml)
[12] = system: Pseudomonas aeruginosa; assay: Potentiation of ceftazidime-induced antibacterial activity against carbapenem-resistant Pseudomonas aeruginosa 109084 clinical isolate assessed as ceftazidime MIC at 8.7 uM by checkerboard assay (reference value: 64 ug/ml)
[13] = system: Pseudomonas aeruginosa; assay: Potentiation of ceftazidime-induced antibacterial activity against carbapenem-resistant Pseudomonas aeruginosa 264-104354 clinical isolate assessed as ceftazidime MIC at 8.7 uM by checkerboard assay (reference value: 128 ug/ml)
[14] = system: Pseudomonas aeruginosa; assay: Potentiation of aztreonam-induced antibacterial activity against carbapenem-resistant Pseudomonas aeruginosa PAO200 harboring and mexAB-oprM efflux deficient mutant assessed as aztreonam MIC at 8.7 uM by checkerboard assay (reference value: 0.25 ug/ml)
[15] = system: Pseudomonas aeruginosa; assay: Potentiation of ceftazidime-induced antibacterial activity against carbapenem-resistant Pseudomonas aeruginosa 259-96918 clinical isolate expressing metallo-beta-lactamase assessed as ceftazidime MIC at 8.7 uM by checkerboard assay (reference value: 512 ug/ml)
[16] = system: Pseudomonas aeruginosa; assay: Potentiation of ceftazidime-induced antibacterial activity against carbapenem-resistant Pseudomonas aeruginosa PAO200 harboring and mexAB-oprM efflux deficient mutant assessed as ceftazidime MIC at 8.7 uM by checkerboard assay (reference value: 1 ug/ml)
[17] = system: Pseudomonas aeruginosa; assay: Potentiation of ceftazidime-induced antibacterial activity against carbapenem-resistant Pseudomonas aeruginosa 86052 clinical isolate assessed as ceftazidime MIC at 8.7 uM by checkerboard assay (reference value: 64 ug/ml)
[18] = system: Pseudomonas aeruginosa; assay: Potentiation of aztreonam-induced antibacterial activity against carbapenem-resistant Pseudomonas aeruginosa 108590 clinical isolate assessed as aztreonam MIC at 8.7 uM by checkerboard assay (reference value: 32 ug/ml)
[19] = system: Pseudomonas aeruginosa; assay: Potentiation of aztreonam-induced antibacterial activity against carbapenem-resistant Pseudomonas aeruginosa 264-104354 clinical isolate assessed as aztreonam MIC at 8.7 uM by checkerboard assay (reference value: 32 ug/ml)
[20] = system: Pseudomonas aeruginosa; assay: Potentiation of aztreonam-induced antibacterial activity against carbapenem and colistin-resistant Pseudomonas aeruginosa 114228 clinical isolate assessed as aztreonam MIC at 8.7 uM by checkerboard assay (reference value: 32 ug/ml)
[21] = system: Pseudomonas aeruginosa; assay: Potentiation of aztreonam-induced antibacterial activity against carbapenem-resistant Pseudomonas aeruginosa 100036 clinical isolate assessed as aztreonam MIC at 8.7 uM by checkerboard assay (reference value: 16 ug/ml)
[22] = system: Pseudomonas aeruginosa; assay: Potentiation of ceftazidime-induced antibacterial activity against carbapenem and colistin-resistant Pseudomonas aeruginosa 101243 clinical isolate assessed as ceftazidime MIC at 8.7 uM by checkerboard assay (reference value: 64 ug/ml)
[23] = system: Pseudomonas aeruginosa; assay: Potentiation of aztreonam-induced antibacterial activity against carbapenem-resistant Pseudomonas aeruginosa PAO750 harboring and mexAB-oprM/mexCD-oprJ/mexEF-oprN/mexJK/mexXY/opmH efflux deficient mutant assessed as aztreonam MIC at 8.7 uM by checkerboard assay (reference value: 0.5 ug/ml)
[24] = system: Pseudomonas aeruginosa; assay: Potentiation of ceftazidime-induced antibacterial activity against carbapenem-resistant Pseudomonas aeruginosa 100036 clinical isolate assessed as ceftazidime MIC at 8.7 uM by checkerboard assay (reference value: 8 ug/ml)
[25] = system: Pseudomonas aeruginosa; assay: Potentiation of ceftazidime-induced antibacterial activity against carbapenem-resistant Pseudomonas aeruginosa 108590 clinical isolate assessed as ceftazidime MIC at 8.7 uM by checkerboard assay (reference value: 32 ug/ml)
[26] = system: Pseudomonas aeruginosa; assay: Potentiation of aztreonam-induced antibacterial activity against carbapenem-resistant Pseudomonas aeruginosa 259-96918 clinical isolate expressing metallo-beta-lactamase assessed as aztreonam MIC at 8.7 uM by checkerboard assay (reference value: 32 ug/ml)
[27] = system: Pseudomonas aeruginosa; assay: Potentiation of aztreonam-induced antibacterial activity against carbapenem-resistant Pseudomonas aeruginosa 101885 clinical isolate assessed as aztreonam MIC at 8.7 uM by checkerboard assay (reference value: 16 ug/ml)
[28] = system: Pseudomonas aeruginosa; assay: Potentiation of aztreonam-induced antibacterial activity against carbapenem-resistant Pseudomonas aeruginosa 86052 clinical isolate assessed as aztreonam MIC at 8.7 uM by checkerboard assay (reference value: 64 ug/ml)
[29] = system: Pseudomonas aeruginosa; assay: Potentiation of ceftazidime-induced antibacterial activity against carbapenem-resistant Pseudomonas aeruginosa 107092 clinical isolate assessed as ceftazidime MIC at 8.7 uM by checkerboard assay (reference value: 128 ug/ml)
[30] = system: Pseudomonas aeruginosa; assay: Potentiation of ceftazidime-induced antibacterial activity against carbapenem-resistant Pseudomonas aeruginosa 262-101856 clinical isolate assessed as ceftazidime MIC at 8.7 uM by checkerboard assay (reference value: 16 ug/ml)
[31] = system: Pseudomonas aeruginosa; assay: Potentiation of aztreonam-induced antibacterial activity against wild-type Pseudomonas aeruginosa PAO1 assessed as aztreonam MIC at 8.7 uM by checkerboard assay (reference value: 4 ug/ml)
[32] = system: Pseudomonas aeruginosa; assay: Potentiation of aztreonam-induced antibacterial activity against carbapenem-resistant Pseudomonas aeruginosa 109084 clinical isolate assessed as aztreonam MIC at 8.7 uM by checkerboard assay (reference value: 64 ug/ml)

Compound: NC[C@H]1O[C@H](O[C@H]2[C@H](OCCCCc3cn(CCCCO[C@@H]4[C@@H](O[C@H]5O[C@H](CO)[C@@H](O)[C@H](N)[C@H]5O)[C@H](N)C[C@H](N)[C@H]4O[C@H]4O[C@H](CN)[C@@H](O)C[C@H]4N)nn3)[C@@H](O[C@H]3O[C@H](CO)[C@@H](O)[C@H](N)[C@H]3O)[C@H](N)C[C@@H]2N)[C@H](N)C[C@@H]1O.O=C(O)C(F)(F)F.O=C(O)C(F)(F)F.O=C(O)C(F)(F)F.O=C(O)C(F)(F)F.O=C(O)C(F)(F)F.O=C(O)C(F)(F)F.O=C(O)C(F)(F)F.O=C(O)C(F)(F)F.O=C(O)C(F)(F)F.O=C(O)C(F)(F)F
- fold change (FC) [1]: 2
- MIC [2]: 8 µg/mL
- MIC [3]: 8 µg/mL
- MIC [4]: 8 µg/mL
- MIC [5]: 4 µg/mL
- MIC [6]: > 128 µg/mL
- MIC [7]: 4 µg/mL
- MIC [8]: 16 µg/mL
- MIC [9]: 0.13 µg/mL

Compound: Cl.Cl.Cl.Cl.Cl.NC[C@H]1O[C@H](O[C@H]2[C@H](OCCCCCCCCCCCCN3CCN(c4cc5c(cc4F)c(=O)c(C(=O)O)cn5C4CC4)CC3)[C@@H](O)[C@H](N)C[C@@H]2N)[C@H](N)C[C@@H]1O
- fold change (FC) [1]: 2
- MIC [2]: 4 µg/mL
- MIC [3]: 4 µg/mL
- MIC [4]: 16 µg/mL
- MIC [5]: 2 µg/mL
- MIC [6]: 32 µg/mL
- MIC [7]: 4 µg/mL
- MIC [8]: 32 µg/mL
- MIC [9]: 0.13 µg/mL

Compound: N=C(N)NC[C@H]1O[C@H](O[C@H]2[C@H](OCCCCCCCCCCCCN3CCN(c4cc5c(cc4F)c(=O)c(C(=O)O)cn5C4CC4)CC3)[C@@H](O[C@H]3O[C@H](CO)[C@@H](O)[C@H](NC(=N)N)[C@H]3O)[C@H](NC(=N)N)C[C@@H]2NC(=N)N)[C@H](NC(=N)N)C[C@@H]1O.O=C(O)C(F)(F)F.O=C(O)C(F)(F)F.O=C(O)C(F)(F)F.O=C(O)C(F)(F)F.O=C(O)C(F)(F)F.O=C(O)C(F)(F)F
- fold change (FC) [1]: 2
- MIC [2]: 4 µg/mL
- MIC [3]: 32 µg/mL
- MIC [4]: 32 µg/mL
- MIC [5]: 2 µg/mL
- MIC [6]: 32 µg/mL
- MIC [7]: 4 µg/mL
- MIC [8]: 32 µg/mL
- MIC [9]: 0.25 µg/mL

Compound: Cl.Cl.Cl.Cl.Cl.Cl.NC[C@H]1O[C@H](O[C@H]2[C@H](OCCCCCCCCCCCCN3CCN(c4cc5c(cc4F)c(=O)c(C(=O)O)cn5C4CC4)CC3)[C@@H](O[C@H]3O[C@H](CO)[C@@H](O)[C@H](N)[C@H]3O)[C@H](N)C[C@@H]2N)[C@H](N)C[C@@H]1O
- fold change (FC) [1]: 2
- MIC [2]: 2 µg/mL
- MIC [3]: 8 µg/mL
- MIC [4]: 4 µg/mL
- MIC [5]: 2 µg/mL
- MIC [6]: 32 µg/mL
- MIC [7]: 2 µg/mL
- MIC [8]: 32 µg/mL
- MIC [9]: 0.06 µg/mL

Compound: NC[C@H]1O[C@H](O[C@H]2[C@H](OCCCCCCCCN3CCCNCCNCCCNCC3)[C@@H](O[C@H]3O[C@H](CO)[C@@H](O)[C@H](N)[C@H]3O)[C@H](N)C[C@@H]2N)[C@H](N)C[C@@H]1O.O=C(O)C(F)(F)F.O=C(O)C(F)(F)F.O=C(O)C(F)(F)F.O=C(O)C(F)(F)F.O=C(O)C(F)(F)F.O=C(O)C(F)(F)F.O=C(O)C(F)(F)F.O=C(O)C(F)(F)F.O=C(O)C(F)(F)F
- MIC [10]: 16 µg/mL
- MIC [11]: 1 µg/mL
- fold change (FC) [1]: 2
- MIC [12]: 16 µg/mL
- MIC [13]: 32 µg/mL
- MIC [14]: 0.02 µg/mL
- MIC [15]: 64 µg/mL
- MIC [16]: 0.06 µg/mL
- MIC [17]: 64 µg/mL
- MIC [18]: 8 µg/mL
- MIC [2]: 8 µg/mL
- MIC [19]: 8 µg/mL
- MIC [20]: 4 µg/mL
- MIC [21]: 2 µg/mL
- MIC [22]: 8 µg/mL
- MIC [23]: 0.03 µg/mL
- MIC [24]: 2 µg/mL
- MIC [25]: 8 µg/mL
- MIC [26]: 4 µg/mL
- MIC [5]: 2 µg/mL
- MIC [27]: 0.5 µg/mL
- MIC [6]: > 128 µg/mL
- MIC [28]: 16 µg/mL
- MIC [29]: 32 µg/mL
- MIC [7]: 8 µg/mL
- MIC [30]: 4 µg/mL
- MIC [31]: 0.25 µg/mL
- MIC [32]: 8 µg/mL

Compound: NC[C@H]1O[C@H](O[C@H]2[C@H](OCCCCc3cn(CCCCO[C@@H]4[C@@H](O)[C@H](N)C[C@H](N)[C@H]4O[C@H]4O[C@H](CN)[C@@H](O)C[C@H]4N)nn3)[C@@H](O)[C@H](N)C[C@@H]2N)[C@H](N)C[C@@H]1O.O=C(O)C(F)(F)F.O=C(O)C(F)(F)F.O=C(O)C(F)(F)F.O=C(O)C(F)(F)F.O=C(O)C(F)(F)F.O=C(O)C(F)(F)F.O=C(O)C(F)(F)F.O=C(O)C(F)(F)F
- fold change (FC) [1]: 2
- MIC [2]: 8 µg/mL
- MIC [3]: 32 µg/mL
- MIC [4]: 16 µg/mL
- MIC [5]: 4 µg/mL
- MIC [6]: > 128 µg/mL
- MIC [7]: 4 µg/mL
- MIC [8]: 64 µg/mL
- MIC [9]: 0.25 µg/mL

Compound: NC[C@H]1O[C@H](O[C@H]2[C@H](OCCCCCCCCN3CCCNCCNCCCNCC3)[C@@H](O)[C@H](N)C[C@@H]2N)[C@H](N)C[C@@H]1O.O=C(O)C(F)(F)F.O=C(O)C(F)(F)F.O=C(O)C(F)(F)F.O=C(O)C(F)(F)F.O=C(O)C(F)(F)F.O=C(O)C(F)(F)F.O=C(O)C(F)(F)F.O=C(O)C(F)(F)F
- fold change (FC) [1]: 2
- MIC [2]: 8 µg/mL
- MIC [3]: 64 µg/mL
- MIC [4]: 8 µg/mL
- MIC [5]: 2 µg/mL
- MIC [6]: > 128 µg/mL
- MIC [7]: 8 µg/mL
- MIC [8]: 64 µg/mL
- MIC [9]: 0.13 µg/mL
